Reference: patent US20080051451A1, “Autoimmune conditions and NADPH oxidase defects” (priority 2006, published 2008)
Entries after “also recorded” stand apart in the source; their conditions may differ.

Columns and labels:
[1] = Arthritogenicity / arthritis effect (general statement); type: in vivo; details: general statement in Example 3
HL-60 cells = test: Oxidative burst assay of granulocytes in vitro (isoluminol, extra-cellular ROS); details: HL-60 differentiated to granulocytes, 50 minutes, 37° C.
Protocol: The human myeloma cell line HL-60 (ATCC, CCI-240) was cultured in D-MEM (Gibco, Paisley, UK) complemented with 10% fetal calf serum and Penicillin-Streptomycin. […] Before assaying the cells were washed and resuspended in PBS to a concentration of 10^7 cells/ml.
Briefly, 5 μl of resuspended oils were added into 96-well plates containing 5×10^5 cells/well in a total volume of 200 μl PBS/well (final concentration isoluminol 50 μg/ml; Sigma Aldrich) and horse radish peroxidase (type II 2,5 U/ml; Sigma Aldrich). Samples were gently mixed and the data collection was initiated immediately. Extra-cellular ROS production was followed at 37° C. as produced luminescence signal (FluoStar Optima, BMG Labtechnologies, Offenburg, Germany) and presented as maximal relative signal during a measurement period of 50 minutes.
The cells were differentiated to granulocytes by culture in presence of 1,25% dimethylsulfoxide (DMSO; Sigma Aldrich Inc., Milwaukee, Wis.) for six days.

DA.Ncf1^DA rats = test: Pristane induced arthritis (PIA) in DA.Ncf1^DA rats; type: in vivo, Rat (Rattus norvegicus); details: for severity of PIA, therapeutic effect: 100 μl subcutaneous injections in the neck at day 8 and 10 after arthritis induction
Protocol: Treatments with compound 1 (phytol) or compound 5 (phytyl acetate) were administered to DA.Ncf1^DA rats as 100 μl subcutaneous injections in the neck at day 8 and 10 after arthritis induction (untreated control (◯), compound 1 (phytol) (♦) and compound 5 (phytyl acetate) (▴)) (FIG. 9).
Treatments with compound 2 (farnesol) or compound 4 (farnesylacetate) were administered to DA.Ncf1^DA rats as 100 μl subcutaneous injections in the neck at day 8 and 10 after arthritis induction, (untreated control (◯), compound 2 (farnesol) (▪) and compound 4 (farnesylacetate) (▴)) (FIG. 11).
Treatments with compound 1 (phytol), compound 6 (di-hydro-phytol, compound 5 (phytyl acetate), or compound 7 (di-hydro-phytyl acetate were administered to DA.Ncf1^DA rats as 100 μl subcutaneous injections in the neck at day 8 and 10 after arthritis induction, (untreated control (◯), compound 1 (phytol) (♦), compound 6 (di-hydro-phytol (▪), compound 5 (phytyl acetate) (▴) or compound 7 (di-hydro-phytyl acetate (●)) (FIG. 12).
Treatments of DA.Ncf1^DA rats with compound 1 (phytol) mixed in the food for continuous uptake compared with Omega3 fatty acids, (untreated control (◯), Omega3 fatty acid (□), phytol 1% daily (♦), phytol 1% every 2'nd day (▴), or phytol 1% initiated day 7 after arthritis induction (▪)) (FIG. 13).
Treatments of DA.Ncf1^DA rats with compound 5 (phytyl acetate) mixed in the food for daily uptake, (untreated control (◯), compound 1 (phytol) 1% daily (♦), or compound 5 (phytyl acetate) 1% daily (▴)) (FIG. 14).
Treatments with compound 1 (phytol) at 1.6 or 2.3 g/kg/day administered to DA.Ncf1^DA rats by oral gavage given by dosing every second day with compound 1 (phytol) […] (♦), compound 1 (phytol) […] (▴) or untreated control (◯).
Treatments of DA.Ncf1^DA rats with compound 1 (phytol) or compound 9 (isophytol) mixed in the food for continuous uptake compared with fenofibrate, (compound 1 (phytol) 500 mg/kg/day (♦), compound 9 (isophytol) 500 mg/kg/day (▴), or fenofibrate 100 mg/kg/day (□). Untreated control (◯).) (see FIG. 17).

SMILES	Extra-cellular ROS production (maximal relative luminescence signal) (HL-60 cells)	severity of PIA, therapeutic effect (DA.Ncf1^DA rats)	also measured
CC(C)=CCC/C(C)=C/CC/C(C)=C/CO [compound 2, 3,7,11-Trimethyl-2,6,10-dodecatrien-1-ol]	strong ROS production	therapeutic effect	arthritis ameliorating effects [1]: arthritis ameliorating effects; arthritogenicity [1]: non arthritogenic
CC(C)=CCC/C(C)=C/CC/C(C)=C/CC/C(C)=C/CO [compound 3, 3,7,11,15-Tetramethyl-hexada-2,6,10,14-tetraen-1-ol]	strong ROS production		arthritis ameliorating effects [1]: arthritis ameliorating effects; arthritogenicity [1]: non arthritogenic
CC(=O)OC/C=C(\C)CC/C=C(\C)CCC=C(C)C [compound 4, Acetic acid 3,7,11-trimethyl-dodeca-2,6,10-trienyl ester]		therapeutic effect comparable to the therapeutic effect of the un-derivatized compound 2	
CC(=O)OC/C=C(\C)CCCC(C)CCCC(C)CCCC(C)C (stereo not drawn) [compound 5, Acetic acid 3,7,11,15-tetra-metyl-hexadec-2-enyl-ester]		therapeutic effect comparable to the therapeutic effect of the un-derivatized compound 1; also recorded: therapeutic effects	severity of PIA, oral administration in food 1% daily (DA.Ncf1^DA rats; mixed in the food for daily uptake, 1% daily): equally effective as oral treatment with compound 1 (phytol) in reducing the severity of arthritis
CC(C)CCCC(C)CCCC(C)CCCC(C)CCO (stereo not drawn) [compound 6, 3,7,11,15-Tetramethyl-hexadecan-1-ol]		therapeutic effect comparable to the therapeutic effects of compound 1 and compound 5	
CC(=O)OCCC(C)CCCC(C)CCCC(C)CCCC(C)C (stereo not drawn) [compound 7, Acetic acid 3,7,11,15-tetramethyl-hexadecyl ester]		therapeutic effect comparable to the therapeutic effects of compound 1 and compound 5	
C=CC(C)(O)CCCC(C)CCCC(C)CCCC(C)C (stereo not drawn) [compound 9, 3,7,11,15-Tetramethyl-1-hexadecen-3-ol]	strong ROS production		severity of PIA, oral administration in food 500 mg/kg/day (DA.Ncf1^DA rats; mixed in the food for continuous uptake, 500 mg/kg/day): reduced the severity of arthritis
CC(C)OC(=O)C(C)(C)Oc1ccc(C(=O)c2ccc(Cl)cc2)cc1 [fenofibrate, propan-2-yl 2-[4-(4-chlorobenzoyl)phenoxy]-2-methyl-propanoate, reference compound]			severity of PIA, oral fenofibrate 100 mg/kg/day (DA.Ncf1^DA rats; 100 mg/kg/day): no effect on the severity of arthritis
